Like-named read-outs stand apart in the source and are kept apart here.
Key:
Assay type in all cases: biochemical
[1] = target: T1, recombinant human FAPα (rhFAPα) (Homo sapiens, UniProt Q12884); assay: FAPα enzymatic exopeptidase (dipeptidase) activity assay; conditions: for inhibition at 1 µM: read-out: rhFAPα (% exo inh @ 1 μM)
T1 construct: purchased R&S system (so in the source)
T1 sequence (Q12884 1-760): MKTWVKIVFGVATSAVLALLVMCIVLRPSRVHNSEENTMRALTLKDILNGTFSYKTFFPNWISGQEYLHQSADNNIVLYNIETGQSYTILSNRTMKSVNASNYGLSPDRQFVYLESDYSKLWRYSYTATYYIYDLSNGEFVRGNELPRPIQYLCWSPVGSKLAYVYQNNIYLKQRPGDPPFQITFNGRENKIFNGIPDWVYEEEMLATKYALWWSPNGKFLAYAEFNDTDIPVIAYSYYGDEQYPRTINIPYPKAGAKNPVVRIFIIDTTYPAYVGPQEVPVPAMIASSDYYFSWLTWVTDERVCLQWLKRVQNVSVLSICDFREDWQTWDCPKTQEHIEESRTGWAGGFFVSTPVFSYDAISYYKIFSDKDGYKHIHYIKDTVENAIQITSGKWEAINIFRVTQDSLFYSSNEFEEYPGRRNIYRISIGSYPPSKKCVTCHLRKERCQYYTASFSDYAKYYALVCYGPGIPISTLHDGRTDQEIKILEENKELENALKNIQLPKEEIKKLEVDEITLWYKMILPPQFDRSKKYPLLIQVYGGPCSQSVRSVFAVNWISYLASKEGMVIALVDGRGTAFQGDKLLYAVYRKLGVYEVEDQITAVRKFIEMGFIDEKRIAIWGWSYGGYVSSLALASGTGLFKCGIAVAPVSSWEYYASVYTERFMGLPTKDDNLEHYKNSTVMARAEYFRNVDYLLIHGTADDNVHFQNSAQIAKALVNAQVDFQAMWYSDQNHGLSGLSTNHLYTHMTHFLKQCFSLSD

mouse plasma DPPIV = target: T2, mouse plasma DPPIV (Mus musculus, UniProt P28843); assay: DPPIV enzymatic activity in mouse plasma; conditions: C57BL/6 mouse plasma; H-Gly-Pro-AMC substrate
T2 construct: from tissue; host or cells: mouse plasma (C57BL/6, EDTA)
Method: Approximately 500 μL of whole blood from one C57BL/6 mouse was harvested into BD Microtainer® tubes (K2) EDTA (#365974, Becton Dickinson and Co.) via terminal cardiac puncture. The blood sample was immediately centrifuged at approximately 9000 g at 4° C. for 5 minutes. Plasma was separated and stored at −80° C. in aliquots of 300 μL. To assay baseline DPPIV enzymatic exopeptidase activity, 5 μL of thawed, mouse plasma was diluted (1:5) in buffer (100 mM Tris-HCl, 400 mM NaCl, 50 mM salicylic acid, 1 mM EDTA, pH 7.5) and mixed with 35 µL of the same buffer before being pre-incubated with different concentrations of 10 μL of test compounds or DMSO vehicle for 15 minutes at 37° C. in 96-well black plates (Nunc, #237108). After pre-incubation, 50 μL of 200 μM dipeptide substrate H-Gly-Pro-AMC (Bachem, #L-1225) was added to the mixture. The assay was performed for 1 hour at 37° C. 7-Amino-4-Methylcoumarin (AMC) release was detected measuring fluorescence at an excitation wavelength of 360 nm and an emission wavelength of 460 nm using a Multifunction Microplate Reader (Synergy 4, Biotek). All measurements were carried out at least in duplicate.

[2] = target: T3, circulating FAPα from human plasma (Homo sapiens, UniProt Q12884); assay: Ex vivo inhibition of circulating FAPα activity from human plasma
T3 construct: from tissue; host or cells: human plasma (EDTA-K2)
T3 sequence (Q12884 24-760 limits assumed): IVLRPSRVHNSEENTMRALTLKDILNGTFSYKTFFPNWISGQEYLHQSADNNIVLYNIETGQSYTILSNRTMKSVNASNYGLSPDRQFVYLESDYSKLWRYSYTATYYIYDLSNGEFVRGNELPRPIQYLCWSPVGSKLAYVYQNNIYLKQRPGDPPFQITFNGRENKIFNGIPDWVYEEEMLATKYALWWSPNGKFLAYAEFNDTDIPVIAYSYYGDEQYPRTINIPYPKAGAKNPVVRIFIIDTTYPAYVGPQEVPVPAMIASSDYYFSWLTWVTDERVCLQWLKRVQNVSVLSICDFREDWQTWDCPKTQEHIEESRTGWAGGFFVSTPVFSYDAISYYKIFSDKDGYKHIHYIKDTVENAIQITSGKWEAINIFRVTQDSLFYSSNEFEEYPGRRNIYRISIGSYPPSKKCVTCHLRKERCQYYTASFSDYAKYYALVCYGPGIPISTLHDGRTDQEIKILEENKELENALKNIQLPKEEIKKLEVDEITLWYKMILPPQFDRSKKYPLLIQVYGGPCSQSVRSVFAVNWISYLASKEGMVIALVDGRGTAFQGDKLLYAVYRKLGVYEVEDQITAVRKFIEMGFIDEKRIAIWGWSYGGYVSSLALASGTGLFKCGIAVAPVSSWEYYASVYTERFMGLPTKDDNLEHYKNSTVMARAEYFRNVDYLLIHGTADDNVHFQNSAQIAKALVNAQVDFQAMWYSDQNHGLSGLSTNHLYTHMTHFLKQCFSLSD
Method: Human blood was obtained from healthy young volunteers. Blood samples were collected in tubes coated with EDTA-K2 by venipuncture method, mixed gently, then kept on ice and centrifuged at 2,500×g for 15 minutes at 4° C. After plasma separation, samples were stored at −80° C. in aliquots of 300 μL. […] Exemplary compounds were allowed to interact with the enzyme for 15 minutes at 37° C. After pre-incubation, 50 μl of 200 μM PRXS-AMC substrate were added to the all mixtures. All reactions were carried out for 1 h at 37° C. protected from light. AMC release was detected measuring fluorescence at an excitation/emission wavelength of 380/460 nm using a Multifunction Microplate Reader. All measurements were carried out as single point.

[3] = target: T4, recombinant human DPPIV (rhDPPIV) (Homo sapiens, UniProt P27487); assay: DPPIV enzymatic activity assay; conditions: H-Gly-Pro-pNA substrate
T4 construct: purchased R&S system (so in the source)

[4] = Table 2, exopeptidase, Z-Gly-Pro-AMC, read-out: rhFAPα (exo IC50)
[5] = Table 3, exopeptidase, read-out: rhFAPα (exo IC50)
[6] = human plasma, PRXS-AMC substrate, read-out: FAPα activity in human plasma (PRXS-AMC) IC50
[7] = 1 μM test compound, Z-Gly-Pro-AMC substrate

T2 sequence (P28843 37-760 limits assumed): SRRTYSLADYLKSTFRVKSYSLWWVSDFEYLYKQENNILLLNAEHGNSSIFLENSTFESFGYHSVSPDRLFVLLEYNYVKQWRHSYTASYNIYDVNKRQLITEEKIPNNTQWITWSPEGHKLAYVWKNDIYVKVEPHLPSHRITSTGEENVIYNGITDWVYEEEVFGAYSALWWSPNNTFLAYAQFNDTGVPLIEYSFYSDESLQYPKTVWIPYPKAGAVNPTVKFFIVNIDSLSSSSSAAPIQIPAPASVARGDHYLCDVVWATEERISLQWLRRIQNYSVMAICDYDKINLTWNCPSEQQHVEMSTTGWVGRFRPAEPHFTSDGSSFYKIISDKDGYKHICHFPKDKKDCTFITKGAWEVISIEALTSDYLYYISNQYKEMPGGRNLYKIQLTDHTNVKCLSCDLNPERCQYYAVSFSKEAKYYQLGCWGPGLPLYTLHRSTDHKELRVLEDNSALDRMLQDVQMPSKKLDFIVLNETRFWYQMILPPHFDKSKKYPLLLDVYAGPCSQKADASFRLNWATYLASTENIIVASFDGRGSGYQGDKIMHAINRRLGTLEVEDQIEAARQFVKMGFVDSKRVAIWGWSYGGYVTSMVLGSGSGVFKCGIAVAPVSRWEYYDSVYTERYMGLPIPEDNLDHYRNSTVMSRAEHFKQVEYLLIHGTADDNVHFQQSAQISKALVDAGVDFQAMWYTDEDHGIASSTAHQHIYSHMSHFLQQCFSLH
T4 sequence (P27487 whole entry): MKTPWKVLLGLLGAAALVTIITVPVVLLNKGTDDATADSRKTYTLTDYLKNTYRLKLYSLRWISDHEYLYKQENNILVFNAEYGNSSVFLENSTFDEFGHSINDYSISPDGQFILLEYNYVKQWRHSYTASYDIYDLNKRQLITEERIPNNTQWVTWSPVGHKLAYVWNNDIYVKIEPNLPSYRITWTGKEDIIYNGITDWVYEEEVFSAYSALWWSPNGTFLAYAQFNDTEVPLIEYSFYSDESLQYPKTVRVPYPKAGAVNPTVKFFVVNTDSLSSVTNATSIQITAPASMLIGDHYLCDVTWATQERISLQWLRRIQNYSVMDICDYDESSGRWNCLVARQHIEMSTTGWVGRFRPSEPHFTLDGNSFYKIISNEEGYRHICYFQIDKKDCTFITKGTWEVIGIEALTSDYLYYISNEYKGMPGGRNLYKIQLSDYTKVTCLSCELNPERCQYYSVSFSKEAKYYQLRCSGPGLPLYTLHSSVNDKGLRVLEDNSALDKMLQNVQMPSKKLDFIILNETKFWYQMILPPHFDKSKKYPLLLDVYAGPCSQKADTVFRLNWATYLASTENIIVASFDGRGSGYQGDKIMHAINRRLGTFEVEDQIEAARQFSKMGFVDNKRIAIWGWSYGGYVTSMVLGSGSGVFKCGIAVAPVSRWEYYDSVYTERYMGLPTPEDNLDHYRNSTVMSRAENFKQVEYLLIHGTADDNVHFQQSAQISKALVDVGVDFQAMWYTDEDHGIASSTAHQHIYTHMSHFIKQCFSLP

Row | IC50 [1, 4] | IC50 [1, 5] | IC50 [2, 6] | inhibition at 1 µM [1, 7] | Compound | inhibition at 1 µM [1] | IC50 (mouse plasma DPPIV) | IC50 [3] | IC50 [1] | IC50 ([1]; read-out: rhFAPα (exo IC50), Table 3, exopeptidase) | IC50 [2]
1 | < 1 µM | < 1 µM | < 1 µM | > 50% | N#C[C@@H]1CC(F)(F)CN1C(=O)CNC(=O)c1c[nH]c(=O)c(-c2ccccc2)c1 [Compound 14, (S)—N-(2-(2-cyano-4,4-difluoropyrrolidin-1-yl)-2-oxoethyl)-6-oxo-5-phenyl-1,6-dihydropyridine-3-carboxamide] |  | 1 to 10 µM | > 10 µM |  |  | 
2 | < 1 µM | < 1 µM | < 1 µM |  | N#C[C@@H]1CC(F)(F)CN1C(=O)CNC(=O)c1c[nH]c(=O)c2ccccc12 [Example 1, (S)—N-(2-(2-cyano-4,4-difluoropyrrolidin-1-yl)-2-oxoethyl)-1-oxo-1,2-dihydroisoquinoline-4-carboxamide] |  | < 1 µM | 1 to 10 µM |  |  | 
3 | < 1 µM | < 1 µM | < 1 µM | > 50% | N#C[C@@H]1CC(F)(F)CN1C(=O)CNC(=O)c1c[nH]c(=O)c2ccc(F)cc12 [Compound 26, (S)—N-(2-(2-cyano-4,4-difluoropyrrolidin-1-yl)-2-oxoethyl)-6-fluoro-1-oxo-1,2-dihydroisoquinoline-4-carboxamide] |  | < 1 µM | 1 to 10 µM |  |  | 
4 |  |  |  |  | N#C[C@@H]1CC(F)(F)CN1C(=O)CNC(=O)c1ccncc1-c1cc(F)cc(F)c1 [Compound 47, (S)—N-(2-(2-cyano-4,4-difluoropyrrolidin-1-yl)-2-oxoethyl)-3-(3,5-difluorophenyl)isonicotinamide] | > 50% | > 10 µM | > 10 µM | < 1 µM | < 1 µM | < 1 µM
5 | < 1 µM | < 1 µM | < 1 µM | > 50% | Cn1ncc2c(-c3cnccc3C(=O)NCC(=O)N3CC(F)(F)C[C@H]3C#N)cccc21 [Compound 87, (S)—N-(2-(2-cyano-4,4-difluoropyrrolidin-1-yl)-2-oxoethyl)-3-(1-methyl-1H-indazol-4-yl)isonicotinamide] |  | 1 to 10 µM | > 10 µM |  |  | 
6 | < 1 µM | < 1 µM | < 1 µM | > 50% | N#C[C@@H]1CC(F)(F)CN1C(=O)CNC(=O)c1ccncc1N1CCOCC1 [Compound 88, N-[2-[(2S)-2-cyano-4,4-difluoro-pyrrolidin-1-yl]-2-oxo-ethyl]-3-morpholino-pyridine-4-carboxamide] |  | 1 to 10 µM | 1 to 10 µM |  |  | 
7 | < 1 µM | < 1 µM | < 1 µM | > 50% | C=Cc1cnccc1C(=O)NCC(=O)N1CC(F)(F)C[C@H]1C#N [Compound 40, (S)—N-(2-(2-cyano-4,4-difluoropyrrolidin-1-yl)-2-oxoethyl)-3-vinylisonicotinamide] |  | > 10 µM | > 10 µM |  |  | 
8 | < 1 µM | < 1 µM | < 1 µM | > 50% | N#C[C@@H]1CC(F)(F)CN1C(=O)CNC(=O)c1ccncc1Cc1ccccc1 [Compound 50, (S)-3-benzyl-N-(2-(2-cyano-4,4-difluoropyrrolidin-1-yl)-2-oxoethyl)isonicotinamide] |  |  | > 10 µM |  |  | 

Row | Compound | IC50 [1, 4] | IC50 [1, 5] | IC50 [2, 6] | inhibition at 1 µM [1, 7] | inhibition at 1 µM [1] | IC50 (mouse plasma DPPIV) | IC50 [3] | IC50 [1] | IC50 ([1]; read-out: rhFAPα (exo IC50), Table 3, exopeptidase) | IC50 [2]
9 | N#C[C@@H]1CC(F)(F)CN1C(=O)CNC(=O)c1ccncc1C1=CCNCC1 [Compound 105, (S)—N-(2-(2-cyano-4,4-difluoropyrrolidin-1-yl)-2-oxoethyl)-1′,2′,3′,6′-tetrahydro-[3,4′-bipyridine]-4-carboxamide 2,2,2-trifluoroacetate] | < 1 µM | < 1 µM | < 1 µM |  | > 50% | > 10 µM | > 10 µM |  |  | 
10 | N#C[C@@H]1CC(F)(F)CN1C(=O)CNC(=O)c1ccncc1C1CC1 [Compound 24, (S)—N-(2-(2-cyano-4,4-difluoropyrrolidin-1-yl)-2-oxoethyl)-3-cyclopropylisonicotinamide] | < 1 µM | < 1 µM | < 1 µM |  | > 50% | > 10 µM | > 10 µM |  |  | 
11 | N#C[C@@H]1CC(F)(F)CN1C(=O)CNC(=O)c1ccncc1-c1ccc(F)cc1 [Compound 52, (S)—N-(2-(2-cyano-4,4-difluoropyrrolidin-1-yl)-2-oxoethyl)-3-(4-fluorophenyl)isonicotinamide] | < 1 µM | < 1 µM | < 1 µM |  | > 50% | > 10 µM | > 10 µM |  |  | 
12 | N#C[C@@H]1CC(F)(F)CN1C(=O)CNC(=O)c1ccncc1-c1ccccc1 [Compound 13, (S)—N-(2-(2-cyano-4,4-difluoropyrrolidin-1-yl)-2-oxoethyl)-3-phenylisonicotinamide] | < 1 µM | < 1 µM | < 1 µM |  | > 50% | > 10 µM | > 10 µM |  |  | 
13 | C=C(c1ccccc1)c1cnccc1C(=O)NCC(=O)N1CC(F)(F)C[C@H]1C#N [Compound 122, (S)—N-(2-(2-cyano-4,4-difluoropyrrolidin-1-yl)-2-oxoethyl)-3-(1-phenylvinyl)isonicotinamide] | < 1 µM | < 1 µM |  |  | > 50% | > 10 µM | > 10 µM |  |  | 
14 | N#C[C@@H]1CC(F)(F)CN1C(=O)CNC(=O)c1c[nH]c(=O)cc1-c1ccc(F)cc1 [Compound 109, (S)—N-(2-(2-cyano-4,4-difluoropyrrolidin-1-yl)-2-oxoethyl)-4-(4-fluorophenyl)-6-oxo-1,6-dihydropyridine-3-carboxamide] | < 1 µM | < 1 µM | < 1 µM |  | > 50% | 1 to 10 µM | 1 to 10 µM |  |  | 

Reference: patent publication US11780821B2, “Inhibitors of fibroblast activation protein” (Praxis Biotech LLC, priority 2017, dated 2023)
